In patent US10004701B2, “Methods and compositions for treating infection” (UNIVERSITY OF ROCHESTER, priority 2012, dated 2018):
In brackets after ≈: the same amount, converted by molar mass. Where two headings read alike, the source gives them in different places.

What was measured:
S. aureus = assay: Minimum Inhibitory Concentration (MIC) testing, terfenadine study; format: cell-based; conditions: Staphylococcus aureus, 16 h
S. aureus DNA gyrase = target: T1, S. aureus DNA gyrase (Staphylococcus aureus, UniProt P0A0K8+P20831); assay: S. aureus DNA gyrase supercoiling assay (TopoGEN); format: biochemical
T1 construct: purchased TopoGEN
T1 sequence (P0A0K8 whole entry): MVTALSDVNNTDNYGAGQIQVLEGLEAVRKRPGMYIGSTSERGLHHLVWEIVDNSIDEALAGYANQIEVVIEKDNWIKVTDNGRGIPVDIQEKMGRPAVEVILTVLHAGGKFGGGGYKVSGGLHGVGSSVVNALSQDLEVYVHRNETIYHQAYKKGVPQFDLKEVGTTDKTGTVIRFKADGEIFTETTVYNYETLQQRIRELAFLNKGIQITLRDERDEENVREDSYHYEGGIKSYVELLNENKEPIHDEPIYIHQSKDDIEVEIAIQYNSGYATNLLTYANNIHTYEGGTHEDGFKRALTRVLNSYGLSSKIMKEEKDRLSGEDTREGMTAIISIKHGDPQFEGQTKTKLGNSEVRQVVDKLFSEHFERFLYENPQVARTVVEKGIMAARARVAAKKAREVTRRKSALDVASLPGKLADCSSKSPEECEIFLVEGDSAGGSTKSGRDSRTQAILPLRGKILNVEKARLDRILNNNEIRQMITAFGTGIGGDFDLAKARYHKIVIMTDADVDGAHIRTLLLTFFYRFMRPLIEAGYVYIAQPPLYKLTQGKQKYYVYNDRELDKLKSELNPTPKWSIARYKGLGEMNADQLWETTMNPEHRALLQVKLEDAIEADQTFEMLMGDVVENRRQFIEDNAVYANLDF
T1 sequence (P20831 whole entry): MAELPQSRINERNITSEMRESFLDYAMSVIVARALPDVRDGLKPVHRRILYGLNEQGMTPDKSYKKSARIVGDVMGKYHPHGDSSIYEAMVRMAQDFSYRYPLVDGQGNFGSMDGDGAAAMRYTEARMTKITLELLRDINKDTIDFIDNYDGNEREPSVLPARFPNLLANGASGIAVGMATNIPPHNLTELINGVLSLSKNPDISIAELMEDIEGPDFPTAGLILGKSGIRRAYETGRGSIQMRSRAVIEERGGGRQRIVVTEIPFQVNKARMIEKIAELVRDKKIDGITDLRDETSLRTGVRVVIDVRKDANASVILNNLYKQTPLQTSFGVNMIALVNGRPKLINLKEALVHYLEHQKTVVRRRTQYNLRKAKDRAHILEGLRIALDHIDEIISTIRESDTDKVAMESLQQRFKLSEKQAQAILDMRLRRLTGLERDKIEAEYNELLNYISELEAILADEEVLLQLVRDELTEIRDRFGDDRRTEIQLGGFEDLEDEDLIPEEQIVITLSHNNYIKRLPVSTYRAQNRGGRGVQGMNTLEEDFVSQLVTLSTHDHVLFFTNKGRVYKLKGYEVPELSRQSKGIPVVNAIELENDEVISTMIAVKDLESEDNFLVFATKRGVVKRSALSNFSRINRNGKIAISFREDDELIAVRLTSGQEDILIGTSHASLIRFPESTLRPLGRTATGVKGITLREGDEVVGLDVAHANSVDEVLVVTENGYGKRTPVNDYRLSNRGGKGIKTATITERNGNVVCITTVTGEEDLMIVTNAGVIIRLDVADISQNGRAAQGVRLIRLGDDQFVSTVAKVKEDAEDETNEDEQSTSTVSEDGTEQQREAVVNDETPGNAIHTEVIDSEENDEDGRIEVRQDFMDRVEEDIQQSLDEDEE
Method: Reactions were incubated at 37° C. for 30 min and then stopped by the addition of 10% SDS, filtered through 0.025 μm Millipore membrane filters in a 10 mM Tris-HCl buffer (pH 8), and electrophoresed in a 1% agarose TAE gel. Gels were stained with 0.5 μg/ml ethidium bromide and images were analyzed using densitometry (Image J, NIH).

[1] = system: A. baumannii strain 98-37-09; assay: AK assay 384-well format, Prestwick library screening; format: cell-based, Acinetobacter baumannii; conditions: 50 μM final drug concentration
K. pneumoniae = assay: as above; format: cell-based, Klebsiella pneumoniae; conditions: 50 μM final drug concentration
E. cloacae = assay: as above; format: cell-based, Enterobacter cloacae; conditions: 50 μM final drug concentration
E. faecium = assay: as above; format: cell-based, Enterococcus faecium; conditions: 50 μM final drug concentration
E. coli = assay: as above; format: cell-based, Escherichia coli; conditions: 50 μM final drug concentration
P. aeruginosa = assay: as above; format: cell-based, Pseudomonas aeruginosa; conditions: 50 μM final drug concentration
[2] = system: S. aureus strain USA300-0114; assay: as above; format: cell-based, Staphylococcus aureus; conditions: 50 μM final drug concentration
[3] = S. aureus, MHB, strain not given, read-out: MIC
[4] = planktonic, cutoff for positive-scoring molecules 3-fold increase
[5] = planktonic, cutoff for positive 3-fold increase
[6] = cutoff for positive-scoring molecules 3-fold increase
[7] = planktonic A. baumannii, positive cutoff 3-fold increase
[8] = planktonic K. pneumoniae, positive cutoff 3-fold increase
[9] = planktonic E. cloacae, positive cutoff 3-fold increase
[10] = planktonic E. faecium, positive cutoff 3-fold increase
[11] = planktonic E. coli, positive cutoff 3-fold increase
[12] = planktonic P. aeruginosa, positive cutoff 3-fold increase
[13] = planktonic S. aureus, positive cutoff 3-fold increase

CC(C)(C)c1ccc(C(O)CCCN2CCC(C(O)c3ccccc3)CC2)cc1 (mixture of isomers) [Compound 31, 1-(4-(tert-butyl)phenyl)-4-(4-(hydroxy(phenyl)methyl)piperidin-1-yl)butan-1-ol]
MIC (S. aureus): 128 µg/mL

CC(C)c1ccc(C(O)CCCN2CCC(C(O)(c3ccccc3)c3ccccc3)CC2)cc1 (centres unmarked) [Compound 1, 4-(4-(hydroxydiphenylmethyl)piperidin-1-yl)-1-(4-isopropylphenyl)butan-1-ol]
MIC (S. aureus; [3]): 16 µg/mL (≈ 35 µM)

CC(C)(C)c1ccc(C(O)CCCCN2CCC(C(O)(c3ccccc3)c3ccccc3)CC2)cc1 (centres unmarked) [Compound 2, 1-(4-(tert-butyl)phenyl)-5-(4-(hydroxydiphenylmethyl)piperidin-1-yl)pentan-1-ol]
IC50 (S. aureus DNA gyrase): 206 µM
MIC (S. aureus): 16 µg/mL (≈ 32.9 µM)

OC(CCCN1CCC(C(O)(c2ccccc2)c2ccccc2)CC1)c1ccc(Cl)cc1 (centres unmarked) [Compound 4, 1-(4-chlorophenyl)-4-(4-(hydroxydiphenylmethyl)piperidin-1-yl)butan-1-ol]
IC50 (S. aureus DNA gyrase): 296 µM
MIC (S. aureus): 64 µg/mL (≈ 142 µM)

OC(CCCN1CCC(C(O)(c2ccccc2)c2ccccc2)CC1)c1ccccc1 (centres unmarked) [Compound 6, 4-(4-(hydroxydiphenylmethyl)piperidin-1-yl)-1-phenylbutan-1-ol]
IC50 (S. aureus DNA gyrase): > 1200 µM
MIC (S. aureus): 256 µg/mL (≈ 616 µM)

COc1ccc(C(O)CCCN2CCC(C(O)(c3ccccc3)c3ccccc3)CC2)cc1 (centres unmarked) [Compound 7, 4-(4-(hydroxydiphenylmethyl)piperidin-1-yl)-1-(4-methoxyphenyl)butan-1-ol]
IC50 (S. aureus DNA gyrase): > 1120 µM
MIC (S. aureus): 256 µg/mL (≈ 575 µM)

CC(C)(C)c1ccc(C(=O)CCCN2CCC(C(O)(c3ccccc3)c3ccccc3)CC2)cc1 [Compound 11, 1-(4-(tert-butyl)phenyl)-4-(4-(hydroxydiphenylmethyl)piperidin-1-yl)butan-1-one]
MIC (S. aureus): 8 µg/mL (≈ 17 µM)

CC(C)(C)c1ccc(C(O)CN2CCC(C(O)(c3ccccc3)c3ccccc3)CC2)cc1 (centres unmarked) [Compound 17, 1-(4-(tert-butyl)phenyl)-2-(4-(hydroxydiphenylmethyl)piperidin-1-yl)ethanol]
MIC (S. aureus; [3]): 16 µg/mL (≈ 36.1 µM)

CC(C)(C)c1ccc(C(=O)CN2CCC(C(O)(c3ccccc3)c3ccccc3)CC2)cc1 [Compound 20, 1-(4-(tert-butyl)phenyl)-2-(4-(hydroxydiphenylmethyl)piperidin-1-yl)ethanone]
MIC (S. aureus): > 256 µg/mL

CC(C)(C)c1ccc(C(N)CCCN2CCC(C(O)(c3ccccc3)c3ccccc3)CC2)cc1 (centres unmarked) [Compound 24, (1-(4-amino-4-(4-(tert-butyl)phenyl)butyl)piperidin-4-yl)diphenylmethanol]
MIC (S. aureus): 16 µg/mL (≈ 34 µM)

CC(C)(C)c1ccc(CN2CCC(C(O)(c3ccccc3)c3ccccc3)CC2)cc1 [Compound 26, (1-(4-(tert-butyl)benzyl)piperidin-4-yl)diphenylmethanol]
IC50 (S. aureus DNA gyrase): 218 µM

CC(C)(C)c1ccc(OCCCN2CCC(C(O)(c3ccccc3)c3ccccc3)CC2)cc1 [Compound 42, (1-(3-(4-(Tert-butyl)phenoxy)propyl)piperidin-4-yl)diphenylmethanol]
IC50 (S. aureus DNA gyrase): 219 µM

Spiramycin
AK-based Prestwick Library Screening Results, A. baumannii (fold increase in extracellular AK activity) [1, 4]: 0.9
AK-based Prestwick Library Screening Results, K. pneumoniae (fold increase in extracellular AK activity) (K. pneumoniae; [4]): 0.8
AK-based Prestwick Library Screening Results, E. cloacae (fold increase in extracellular AK activity) (E. cloacae; [4]): 1.2
AK-based Prestwick Library Screening Results, E. faecium (fold increase in extracellular AK activity) (E. faecium; [4]): 1.0
AK-based Prestwick Library Screening Results, E. coli (fold increase in extracellular AK activity) (E. coli; [4]): 0.9
AK-based Prestwick Library Screening Results, P. aeruginosa (fold increase in extracellular AK activity) (P. aeruginosa; [4]): 0.7
AK-based Prestwick Library Screening Results, S. aureus (fold increase in extracellular AK activity) [2, 4]: 6.6

Terbutaline hemisulfate
AK-based Prestwick Library Screening Results, A. baumannii (fold increase in extracellular AK activity) [1, 5]: 1.1
AK-based Prestwick Library Screening Results, K. pneumoniae (fold increase in extracellular AK activity) (K. pneumoniae; [5]): 1.3
AK-based Prestwick Library Screening Results, E. cloacae (fold increase in extracellular AK activity) (E. cloacae; [5]): 1.4
AK-based Prestwick Library Screening Results, E. faecium (fold increase in extracellular AK activity) (E. faecium; [5]): 1.0
AK-based Prestwick Library Screening Results, E. coli (fold increase in extracellular AK activity) (E. coli; [5]): 1.2
AK-based Prestwick Library Screening Results, P. aeruginosa (fold increase in extracellular AK activity) (P. aeruginosa; [5]): 1.1
AK-based Prestwick Library Screening Results, S. aureus (fold increase in extracellular AK activity) [2, 5]: 1.1

Thioproperazine dimesylate
AK-based Prestwick Library Screening Results: A. baumannii (increase in extracellular AK activity) ([1]; planktonic A. baumannii, 384-well, cutoff for positive-scoring molecules 3-fold increase): 1.7
AK-based Prestwick Library Screening Results: K. pneumoniae (increase in extracellular AK activity) (K. pneumoniae; planktonic K. pneumoniae, 384-well, cutoff for positive-scoring molecules 3-fold increase): 1.1
AK-based Prestwick Library Screening Results: E. cloacae (increase in extracellular AK activity) (E. cloacae; planktonic E. cloacae, 384-well, cutoff for positive-scoring molecules 3-fold increase): 1.3
AK-based Prestwick Library Screening Results: E. faecium (increase in extracellular AK activity) (E. faecium; planktonic E. faecium, 384-well, cutoff for positive-scoring molecules 3-fold increase): 1.0
AK-based Prestwick Library Screening Results: E. coli (increase in extracellular AK activity) (E. coli; planktonic E. coli, 384-well, cutoff for positive-scoring molecules 3-fold increase): 1.5
AK-based Prestwick Library Screening Results: P. aeruginosa (increase in extracellular AK activity) (P. aeruginosa; planktonic P. aeruginosa, 384-well, cutoff for positive-scoring molecules 3-fold increase): 1.1
AK-based Prestwick Library Screening Results: S. aureus (increase in extracellular AK activity) ([2]; planktonic S. aureus, 384-well, cutoff for positive-scoring molecules 3-fold increase): 1.0

Timolol maleate salt
AK-based Prestwick Library Screening Results, A. baumannii (fold increase in extracellular AK activity) [1, 6]: 1.5
AK-based Prestwick Library Screening Results, K. pneumoniae (fold increase in extracellular AK activity) (K. pneumoniae; [6]): 1.1
AK-based Prestwick Library Screening Results, E. cloacae (fold increase in extracellular AK activity) (E. cloacae; [6]): 1.4
AK-based Prestwick Library Screening Results, E. faecium (fold increase in extracellular AK activity) (E. faecium; [6]): 1.0
AK-based Prestwick Library Screening Results, E. coli (fold increase in extracellular AK activity) (E. coli; [6]): 1.3
AK-based Prestwick Library Screening Results, P. aeruginosa (fold increase in extracellular AK activity) (P. aeruginosa; [6]): 1.1
AK-based Prestwick Library Screening Results, S. aureus (fold increase in extracellular AK activity) [2, 6]: 1.3

Trimeprazine tartrate
AK-based Prestwick Library Screening Results, A. baumannii (fold increase in extracellular AK activity) [1, 6]: 1.1
AK-based Prestwick Library Screening Results, K. pneumoniae (fold increase in extracellular AK activity) (K. pneumoniae; [6]): 0.9
AK-based Prestwick Library Screening Results, E. cloacae (fold increase in extracellular AK activity) (E. cloacae; [6]): 1.5
AK-based Prestwick Library Screening Results, E. faecium (fold increase in extracellular AK activity) (E. faecium; [6]): 1.0
AK-based Prestwick Library Screening Results, E. coli (fold increase in extracellular AK activity) (E. coli; [6]): 1.2
AK-based Prestwick Library Screening Results, P. aeruginosa (fold increase in extracellular AK activity) (P. aeruginosa; [6]): 1.2
AK-based Prestwick Library Screening Results, S. aureus (fold increase in extracellular AK activity) [2, 6]: 1.1

Trimipramine maleate salt
AK-based Prestwick Library Screening Results, A. baumannii (fold increase in extracellular AK activity) [1, 4]: 0.6
AK-based Prestwick Library Screening Results, K. pneumoniae (fold increase in extracellular AK activity) (K. pneumoniae; [4]): 0.6
AK-based Prestwick Library Screening Results, E. cloacae (fold increase in extracellular AK activity) (E. cloacae; [4]): 0.6
AK-based Prestwick Library Screening Results, E. faecium (fold increase in extracellular AK activity) (E. faecium; [4]): 0.9
AK-based Prestwick Library Screening Results, E. coli (fold increase in extracellular AK activity) (E. coli; [4]): 0.6
AK-based Prestwick Library Screening Results, P. aeruginosa (fold increase in extracellular AK activity) (P. aeruginosa; [4]): 0.6
AK-based Prestwick Library Screening Results, S. aureus (fold increase in extracellular AK activity) [2, 4]: 0.5

Tyloxapol
AK-based Prestwick Library Screening Results, A. baumannii (fold increase in extracellular AK activity) [1, 6]: 1.3
AK-based Prestwick Library Screening Results, K. pneumoniae (fold increase in extracellular AK activity) (K. pneumoniae; [6]): 1.5
AK-based Prestwick Library Screening Results, E. cloacae (fold increase in extracellular AK activity) (E. cloacae; [6]): 1.2
AK-based Prestwick Library Screening Results, E. faecium (fold increase in extracellular AK activity) (E. faecium; [6]): 1.0
AK-based Prestwick Library Screening Results, E. coli (fold increase in extracellular AK activity) (E. coli; […]): 1.4
AK-based Prestwick Library Screening Results, P. aeruginosa (fold increase in extracellular AK activity) (P. aeruginosa; [6]): 1.2
AK-based Prestwick Library Screening Results, S. aureus (fold increase in extracellular AK activity) [2, 6]: 1.4

Verteporfin
AK-based Prestwick library screening result, A. baumannii (fold increase in extracellular AK activity) [1, 7]: 0.9
AK-based Prestwick library screening result, K. pneumoniae (fold increase in extracellular AK activity) (K. pneumoniae; [8]): 0.8
AK-based Prestwick library screening result, E. cloacae (fold increase in extracellular AK activity) (E. cloacae; [9]): 1.6
AK-based Prestwick library screening result, E. faecium (fold increase in extracellular AK activity) (E. faecium; [10]): 1.2
AK-based Prestwick library screening result, E. coli (fold increase in extracellular AK activity) (E. coli; [11]): 0.7
AK-based Prestwick library screening result, P. aeruginosa (fold increase in extracellular AK activity) (P. aeruginosa; [12]): 0.8
AK-based Prestwick library screening result, S. aureus (fold increase in extracellular AK activity) [2, 13]: 0.5

Viomycin sulfate
AK-based Prestwick library screening result, A. baumannii (fold increase in extracellular AK activity) ([1]; planktonic A. baumannii, […]): 1.1
AK-based Prestwick library screening result, K. pneumoniae (fold increase in extracellular AK activity) (K. pneumoniae; planktonic K. pneumoniae, […]): 0.9
AK-based Prestwick library screening result, E. cloacae (fold increase in extracellular AK activity) (E. cloacae; planktonic E. cloacae, […]): 1.6
AK-based Prestwick library screening result, E. faecium (fold increase in extracellular AK activity) (E. faecium; planktonic E. faecium, […]): 1.0
AK-based Prestwick library screening result, E. coli (fold increase in extracellular AK activity) (E. coli; planktonic E. coli, […]): 1.0
AK-based Prestwick library screening result, P. aeruginosa (fold increase in extracellular AK activity) (P. aeruginosa; planktonic P. aeruginosa, […]): 0.9
AK-based Prestwick library screening result, S. aureus (fold increase in extracellular AK activity) ([2]; planktonic S. aureus, […]): 1.3

Vitamin K2
AK-based Prestwick library screening result, A. baumannii (fold increase in extracellular AK activity) [1, 7]: 1.1
AK-based Prestwick library screening result, K. pneumoniae (fold increase in extracellular AK activity) (K. pneumoniae; [8]): 0.8
AK-based Prestwick library screening result, E. cloacae (fold increase in extracellular AK activity) (E. cloacae; [9]): 1.6
AK-based Prestwick library screening result, E. faecium (fold increase in extracellular AK activity) (E. faecium; [10]): 1.0
AK-based Prestwick library screening result, E. coli (fold increase in extracellular AK activity) (E. coli; [11]): 0.9
AK-based Prestwick library screening result, P. aeruginosa (fold increase in extracellular AK activity) (P. aeruginosa; [12]): 1.1
AK-based Prestwick library screening result, S. aureus (fold increase in extracellular AK activity) [2, 13]: 1.8
